Test results taken from US11918565B1, “Treatment of post-operative pain via sciatic nerve block with sustained-release liposomal anesthetic compositions” (Pacira Pharmaceuticals, Inc., priority 2022, dated 2024).
Structures can show the parent of a compound that is named as a salt.

How the values were obtained:
[1] = system: subjects undergoing bunionectomy; assay: Safety: treatment-emergent adverse events, SAEs, AESIs, vital signs, EKG through POD14, clinical trial #1; format: in vivo, human
Source text: Safety assessments included monitoring of AEs from the time of randomization through POD 14. Safety endpoints include incidence of treatment-emergent AEs and SAEs from the start of the nerve block procedure through POD 14.
Safety endpoints included incidence of treatment emergent adverse events (AEs) and serious adverse events (SAEs) from start of the nerve block procedure through POD14.
Adverse event verbatim terms are mapped to preferred terms and related system organ class using the Medical Dictionary for Regulatory Activities (MedDRA). Events that start prior to the start of study drug administration are identified in a by-subject listings. Incidence rates of TEAEs and the proportion of subject prematurely withdrawn from the study due to a TEAE is shown for each treatment arm. […] Incidence rates of SAEs is shown for each treatment arm.
An AE that occurred after administration of the study treatment was considered a treatment-emergent adverse event (TEAE). A continuous AE with varying grades of severity was to be recorded as 1 AE. The highest grade of severity experienced by that subject during the course of the continuous AE was to be recorded.
General guidelines are provided below: • Unrelated: A causal relationship between the study drug and the AE could be easily ruled out (e.g., based on the temporal sequence, absence of a reasonable pathophysiological mechanism, or direct evidence of actual cause). • Unlikely: A clinical event with a temporal relationship to study drug administration that made a causal relationship improbable and in which other drugs, chemicals, or underlying disease provided a plausible explanation. • Possible: A clinical event with a reasonable time sequence to administration of the study drug but that could also be explained by a concurrent disease or other drugs or chemicals. • Probable: A clinical event with a reasonable time sequence to administration of the study drug unlikely to be attributed to a concurrent disease or other drugs or chemicals and that followed a clinically reasonable response on withdrawal (dechallenge). • Definite: The pharmacological properties of the study drug(s) or of the substance class, and the course of the AE after dechallenge and, if applicable, after rechallenge, and/or specific test indicated involvement of the study drug(s) in the occurrence/worsening of the AE, and no indication of other causes existed.
Based on review of all peripheral nerve blocks, the following conditions were considered to be Adverse Events of Special Interest (AESIs) upon review of the AEs: • Falls • Persistent tingling • Persistent numbness • Persistent weakness • Hypersensitivity • Seizures • Tremors • Dizziness • Hematoma formation • Cardiovascular depression • Dyspnea • Cardiovascular arrest • Altered sensorium • Visual disturbances • Local anesthetic systemic toxicity
However, death, in and of itself, was not an AE; it was an outcome. The cause of death was the AE.

[2] = system: subjects undergoing bunionectomy; assay: Postsurgical opioid consumption, opioid-free subjects and time to first opioid rescue, clinical trial #1; format: in vivo, human
Protocol: Clinical Study #1 was a Phase 3, multicenter, randomized, double-blind, active-controlled study in 180 subjects undergoing bunionectomy. Subjects received a sciatic (in the popliteal fossa) nerve block with a single dose of either […] 266 mg ([…] 133 mg (EXP133), or 0.25% bupivacaine HCl (50 mg; BUP50). The study was conducted in two parts (Part A and Part B). Part A was to be completed and analyzed before enrollment in Part B was initiated. Part A was a 3-arm cohort with 66 subjects undergoing bunionectomy to obtain information on pharmacokinetics (PK), pharmacodynamics (PD), efficacy, and safety. Subjects were randomized (1:1:1) to the EXP266, EXP133, and BUP50 treatment arms. Part B was a 2-arm cohort with 119 subjects undergoing bunionectomy to evaluate the efficacy and safety of […] compared with bupivacaine HCl. The dose of the […] arm in Part B was determined based on the interim analysis of the Part A cohort results. On the day of surgery, subjects received an ultrasound-guided sciatic (in the popliteal fossa) nerve block with one of the following treatments: • EXP266 arm: subjects randomized to this treatment arm received 20 mL (266 mg) […] mixed with 10 mL saline (Part A only; per interim analysis was not selected for Part B) • EXP133 arm: subjects randomized to this treatment arm received 10 mL (133 mg) […] mixed with 20 mL saline (Part A and B) • BUP50 arm: subjects randomized to this treatment arm received 20 mL (50 mg) 0.25% bupivacaine HCl mixed with 10 mL saline (Part A and B) Postsurgical pain for breakthrough pain. An unscheduled pain intensity assessment using the NRS (measured as “On a scale from 0 to 10, where 0 equals no pain and 10 equals the worst possible pain, how much pain are you experiencing in your operative foot right now?”) was to be completed immediately prior to administration of any breakthrough pain medication up to 96 h post-surgery. Medications were administered PRN; opioids were not to be given on a pre-determined schedule. […] All postsurgical analgesics administered, were to be recorded through hospital discharge. […]

[3] = EXP266 Part A, EXP133 and BUP50 Part A+B

## CCCCN1CCCCC1C(=O)Nc1c(C)cccc1C (stereo not drawn) [BUP50, bupivacaine HCl]
[1]; EXP133 on POD2, BUP50 on POD1
  subjects with a clinically significant abnormal EKG finding: 1 subject
[1]; EXP266: hypertension and pyrexia, BUP50: atrioventricular block second degree, both discontinued
  subjects with treatment-emergent SAEs related to study drug: 1 subject
[1]; [3]
  proportion of subjects with a treatment-related TEAE: 2.4%
[1]; EXPAREL (266 mg), bupivacaine HCl
  subjects that had SAEs: 1 subject
[1]; human, in vivo
  AESI of atrioventricular block second degree considered possibly related to study drug: 1 subject
  AESI of muscular weakness considered possibly related to study drug: 1 subject
  TEAE constipation, subjects: 31.7%
  TEAE nausea, subjects: 23.2%
  number of subjects with ≥1 TEAE related to study drug: 2 subjects
  subjects who had ≥1 AESI: 4 subjects
  subjects with a moderate TEAE: 12.2%
[1]; through POD14
  proportion of subjects who reported TEAEs: 54.9%
[2]; 0 to 96 h post-surgery, EXP266 Part A, EXP133 and BUP50 Part A+B
  estimate of the proportion of opioid-free subjects: 9.8%
[2]; [3]
  proportion of subjects who received opioid breakthrough medication: 90.2%
[2]; post-surgery, Kaplan-Meier
  median time to first rescue medication: 20.68 h
